Test results reported in US4372949A, “Treatment of cancer with carcinostatic and immunostimulating agent containing lysophospholipid and phospholipid” (Toyama Chemical Co., Ltd., priority 1979, dated 1983).

Key:
[1] = test system: Lewis lung cancerous cells; experiment: Inhibitory effect against metastasis of Lewis lung cancer; type: in vivo, mice (BDF1 strain); conditions: L-lysolecithin 40 mg/kg i.p., 10 days
Description: 1×10^6 Lewis lung cancerous cells were given intravenously to BDF1 strain (female, 13-week old) mice, and after 24 hours, L-lysolecithin (40 mg/kg) was administered intraperitoneally while a mixture of a fat emulsion (20 ml/kg) and L-lysolecithin (40 mg/kg) was administered intravenously, each for a period of 10 days repeatedly, and at the 11th day, the breast of each test mouse was cut open and the dry weight of the lung (mg mean ± S.E.) was measured. The inhibitory effect was judged by the ratio to the control group (T/C).

mice = experiment: Acute toxicity; type: in vivo; conditions: female, intravenous injection
Excerpt: The results of measurement of acute toxicity on some typical compounds prepared according to this invention are shown in Table 9.
(Test animal: mice, female; intravenous injection)

L-1210 leukemic cells = experiment: Pre-administration effect to L-1210 (L-1210 allograft); type: in vivo, mice (ddN strain); conditions: i.p., 7 days pre-administration
Description: Each test compound was repeatedly administered (at a dose of 40 mg/kg as calculated in terms of L-lysolecithin) intraperitoneally to ddN strain mice (male, 6-week old) for a period of 7 days, and after one-week no-administration period, 1×10^6 L-1210 leukemic cells were inoculated intraperitoneally and the average number of survival days of the test animal was determined.

[2] = Table 5, 40 mg/kg L-lysolecithin (No. 7: + 20 ml/kg fat emulsion)

With L-lysolecithin the “Dry lung weight (mean ± S.E.)” value [1] was 34.3 ± 1.6 mg, the “Increased weight (mean ± S.E.)” value [1] was 4.7 ± 1.6 mg and the T/C ([1]; ratio to control group) was 29.0%. The LD50 (mice) was 122 mg/kg, the “Average number of survival days” value (L-1210 leukemic cells; Table 4, 40 mg/kg as L-lysolecithin) was > 21.0 days and the “Number of survival days (mean ± S.E.)” value (L-1210 leukemic cells; [2]) was 21.0 days. The “Number of survivor for 21 days/Number of mice tested” value (L-1210 leukemic cells; [2]) was 6/6.
